Measured values: patent publication US5656206A, “Substituted naphthopyrans” (Transitions Optical, Inc., priority 1995, dated 1997)

Assay: Photochromic response rates on an optical bench (polymer test squares)
Format: physicochemical
Conditions: for ΔOD@ SATURATION: UV exposure continued for 20 minutes, test square; for ΔOD@ SATURATION / ΔOD/MIN SENSITIVITY: 75° F. (23.9° C.); for ΔOD/MIN SENSITIVITY: measured over first five (5) seconds of UV exposure, expressed per minute, BPA 2EO DMA / poly(ethyleneglycol) 600 dimethacrylate test square; for Bleach (T1/2): time for absorbance of activated form to reach one half the highest absorbance, room temperature (75° F., 23.9° C.), after removal of activating light; for LAMBDA MAX (VISIBLE): wavelength of maximum absorption of the activated (colored) form, in a diethylene glycol bis(allyl carbonate) composition
Experimental: Testing was done with the photochromic naphthopyrans of the Examples incorporated into polymeric samples by the following method. The quantity of naphthopyran calculated to yield a 1.5 times 10^-3 molal solution was added to a flask containing 50 grams of a monomer blend of 4 parts ethoxylated bisphenol A dimethacrylate (BPA 2EO DMA), 1 part poly(ethyleneglycol) 600 dimethacrylate, and 0.033 weight percent 2,2'-azobis(2-methyl propionitrile) (AIBN). The naphthopyran was dissolved into the monomer blend by stirring and gentle heating, if necessary. After a clear solution was obtained, it was poured into a flat sheet mold having the interior dimensions of 2.2 mm×6 inches (15.24 cm)×6 inches (15.24 cm). The mold was sealed and placed in a horizontal air flow, programmable oven set to increase the temperature from 40° C. to 95° C. over a 5 hour interval, hold the temperature at 95° C. for 3 hours and then lower it to 60° C. for at least 2 hours before the end of the curing cycle. After the mold was opened, the polymer sheet was cut using a diamond blade saw into 2 inch (5.1 centimeters) test squares.
The photochromic test squares prepared in Part A were tested for photochromic response rates on an optical bench. […] The bench was fitted with a 150 watt Xenon arc lamp, a remote controlled shutter, a copper sulfate bath acting as a heat sink for the arc lamp, a Schott WG-320 nm cut-off filter which removes short wavelength radiation; neutral density filter(s) and a sample holder in which the square to be tested was inserted. A collimated beam of light from a tungsten lamp was passed through the square at a small angle normal to the square. After passing through the square, the light from the tungsten lamp was directed through a photopic filter attached to a detector. The photopic filter passes wavelengths such that the detector mimics the response of the human eye. The output signals from the detector(s) were processed by a radiometer.
Change in optical density (ΔOD) was determined by inserting a test square in the bleached state into the sample holder, adjusting the transmittance scale to 100%, opening the shutter from the Xenon lamp to provide ultraviolet radiation to change the test square from the bleached state to an activated (i.e., darkened) state, measuring the transmittance in the activated state, and calculating the change in optical density according to the formula Δ OD=log(100/%Ta) where %Ta is the percent transmittance in the activated state and the logarithm is to the base 10.
The Δ OD/Min, which represents the sensitivity of the photochromic compound's response to UV light, was measured over the first five (5) seconds of UV exposure, then expressed on a per minute basis. The saturation optical density (OD) was taken under identical conditions as the Δ OD/Min, except UV exposure was continued for 20 minutes for the examples in Table 1. The lambda max reported in Table 1 is the wavelength in the visible spectrum at which the maximum absorption of the activated (colored) form of the photochromic compound in a diethylene glycol bis(allyl carbonate) composition occurs.

| Structure (SMILES) | ΔOD@ SATURATION | ΔOD/MIN SENSITIVITY | Bleach (T1/2) [min] | LAMBDA MAX (VISIBLE) | bleach rate, i.e., fade rate (in words) (conclusion from Table 1) |
| --- | --- | --- | --- | --- | --- |
| COc1ccc(C2(c3ccc(OC)cc3)C=Cc3c(CO)c(C)c4ccc(OC)cc4c3O2)cc1 [Example 1, 2,2-bis(4-methoxyphenyl)-5-hydroxymethyl-6-methyl-9-methoxy-2H-naphtho[1,2-b]pyran] | 0.42 | 0.38 ΔOD/MIN | 5.05 | 520 |  |
| COc1ccc(C2(c3ccc(OC)cc3)C=Cc3c(CO)c(-c4ccccc4)c4ccccc4c3O2)cc1 [Example 2, 2,2-bis(4-methoxyphenyl)-5-hydroxymethyl-6-phenyl-2H-naphtho[1,2-b]pyran] | 0.26 | 0.32 ΔOD/MIN | 2.48 | 506 |  |
| COc1ccc(C2(c3ccc(OC)cc3)C=Cc3c(COC(C)=O)c(-c4ccccc4)c4ccccc4c3O2)cc1 [Example 3, 2,2-bis(4-methoxyphenyl)-5-acetoxymethyl-6-phenyl-2H-naphtho[1,2-b]pyran] | 0.25 | 0.33 ΔOD/MIN | 1.82 | 508 |  |
| COc1ccc(C2(c3ccc4c(c3)CCO4)C=Cc3c(C(=O)N4CCCCC4)c(C)c4ccc(OC)cc4c3O2)cc1 (centres unmarked) [Example 4, 2-(4-methoxyphenyl)-2-(2,3-dihydrobenzofuran-5-yl)-5-piperidinocarbonyl-6-methyl-9-methoxy-2H-naphtho[1,2-b]pyran] | 0.65 | 0.34 ΔOD/MIN | > 13.3 | 535 | fades much slower |
